Source: patent US10052330B2, “Substituted pyrido[3,4-b]pyrazines as Syk inhibitors” (HUTCHISON MEDIPHARMA LIMITED, priority 2011, dated 2018)
Like-named read-outs stand apart in the source and are kept apart here.

What was measured:
Syk kinase = Syk kinase (Homo sapiens, UniProt P43405); experiment: Syk kinase enzymatic assay (Kit-Tyr 2 Peptide); type: biochemical
RBL-2H3 cells = experiment: IgE-induced Beta-hexosaminidase secretion in RBL-2H3 cells; type: cell-based; conditions: Rattus norvegicus
[1] = 8 concentrations, 1 μM down to 0.0003 μM, upper bound of each range is 'less than', read-out: IC50: Enzymatic Activity (Syk kinase)
[2] = RBL-2H3, RBL-2H3 cells sensitized with SPE-7, stimulated with DNP-BSA, upper bound of each range is 'less than', read-out: IC50, IgE-induced Beta-hexosaminidase secretion

| IC50 (Syk kinase; [1]) | SMILES | IC50 (RBL-2H3 cells; [2]) | IC50 (Syk kinase) | IC50 (RBL-2H3 cells; RBL-2H3, read-out: IC50, IgE-induced Beta-hexosaminidase secretion) |
| --- | --- | --- | --- | --- |
| 100 to 1000 nM | CCn1cc(-c2cc3nccnc3c(NC[C@H]3CNCCC3(F)F)n2)cn1 [Compound 393, (R)—N-((4,4-difluoropiperidin-3-yl)methyl)-7-(1-ethyl-1H-pyrazol-4-yl)pyrido[4,3-b]pyrazin-5-amine] | 1 to 100 nM |  |  |
| 1 to 100 nM | CN(c1ccc(-c2cc3nccnc3c(NC[C@@H]3CNCCC3(F)F)n2)cc1)S(C)(=O)=O [Compound 394, (S)—N-(4-(5-((4,4-difluoropiperidin-3-yl)methylamino)pyrido[4,3-b]pyrazin-7-yl)phenyl)-N-methylmethanesulfonamide] | 1 to 100 nM |  |  |
| 100 to 1000 nM | CN(c1ccc(-c2cc3nccnc3c(NC[C@H]3CNCCC3(F)F)n2)cc1)S(C)(=O)=O [Compound 395, (R)—N-(4-(5-((4,4-difluoropiperidin-3-yl)methylamino)pyrido[4,3-b]pyrazin-7-yl)phenyl)-N-methylmethanesulfonamide] | 1 to 100 nM |  |  |
| 1 to 100 nM | C[C@H]1CN(c2ccc(-c3cc4nccnc4c(NC[C@H]4CNCCC4(F)F)n3)cc2)CCO1 [Compound 397, (R)—N-((4,4-difluoropiperidin-3-yl)methyl)-7-(4-((S)-2-methylmorpholino)phenyl)pyrido[4,3-b]pyrazin-5-amine] | 1 to 100 nM |  |  |
| 1 to 100 nM | FC1(F)CCNC[C@H]1CNc1nc(-c2cnn(C3CCOCC3)c2)cc2nccnc12 [Compound 398, (S)—N-((4,4-difluoropiperidin-3-yl)methyl)-7-(1-(tetrahydro-2H-pyran-4-yl)-1H-pyrazol-4-yl)pyrido[4,3-b]pyrazin-5-amine] | 1 to 100 nM |  |  |
| 1 to 100 nM | FC1(F)CCNC[C@@H]1CNc1nc(-c2cnn(C3CCOCC3)c2)cc2nccnc12 [Compound 399, (R)—N-((4,4-difluoropiperidin-3-yl)methyl)-7-(1-(tetrahydro-2H-pyran-4-yl)-1H-pyrazol-4-yl)pyrido[4,3-b]pyrazin-5-amine] | 1 to 100 nM |  |  |
| 1 to 100 nM | O=S(=O)(C1CC1)N1CCN(c2ccc(-c3cc4nccnc4c(NC[C@@H]4CNCCO4)n3)cc2)CC1 [Compound 400, (S)-7-(4-(4-(cyclopropylsulfonyl)piperazin-1-yl)phenyl)-N-(morpholin-2-ylmethyl)pyrido[4,3-b]pyrazin-5-amine] | 1 to 100 nM |  |  |
| 1 to 100 nM | CC(C)S(=O)(=O)N1CCN(c2ccc(-c3cc4nccnc4c(NC[C@@H]4CNCCO4)n3)cc2)CC1 [Compound 401] | 100 to 1000 nM |  |  |
| 1 to 100 nM | CC1(C(=O)N2CCN(c3ccc(-c4cc5nccnc5c(NC[C@@H]5CNCCO5)n4)cc3)CC2)CC1 [Compound 402] | 1 to 100 nM |  |  |
| 1 to 100 nM | O=C(CC1CC1)N1CCN(c2ccc(-c3cc4nccnc4c(NC[C@@H]4CNCCO4)n3)cc2)CC1 [Compound 403] | 100 to 1000 nM |  |  |
| 1 to 100 nM | CC1(C(=O)N2CCN(c3ccc(-c4cc5nccnc5c(NC[C@@H]5CNCCO5)n4)cc3)CC2)COC1 [Compound 404] | 100 to 1000 nM |  |  |
| 1 to 100 nM | CC(C)C(=O)N1CCN(c2ccc(-c3cc4nccnc4c(NC[C@@H]4CNCCO4)n3)cc2)CC1 [Compound 405] | 1 to 100 nM |  |  |
| 1 to 100 nM | C[C@@H](O)C(=O)N1CCN(c2ccc(-c3cc4nccnc4c(NC[C@@H]4CNCCO4)n3)cc2)CC1 [Compound 406] | 100 to 1000 nM |  |  |
| 1 to 100 nM | O=C(C(F)F)N1CCN(c2ccc(-c3cc4nccnc4c(NC[C@@H]4CNCCO4)n3)cc2)CC1 [Compound 407] | 1 to 100 nM |  |  |
| 1 to 100 nM | C[C@H](O)C(=O)N1CCN(c2ccc(-c3cc4nccnc4c(NC[C@@H]4CNCCO4)n3)cc2)CC1 [Compound 408] | 100 to 1000 nM |  |  |
| 1 to 100 nM | N#CCC(=O)N1CCN(c2ccc(-c3cc4nccnc4c(NC[C@@H]4CNCCO4)n3)cc2)CC1 [Compound 409] | 100 to 1000 nM |  |  |
| 1 to 100 nM | O=C(CCO)N1CCN(c2ccc(-c3cc4nccnc4c(NC[C@@H]4CNCCO4)n3)cc2)CC1 [Compound 410] | 100 to 1000 nM |  |  |
| 1 to 100 nM | O=C(CC(F)(F)F)N1CCN(c2ccc(-c3cc4nccnc4c(NC[C@@H]4CNCCO4)n3)cc2)CC1 [Compound 411] | 1 to 100 nM |  |  |
| 1 to 100 nM | CC(C)(O)C(=O)N1CCN(c2ccc(-c3cc4nccnc4c(NC[C@@H]4CNCCO4)n3)cc2)CC1 [Compound 412] | 100 to 1000 nM |  |  |

| IC50 (Syk kinase; [1]) | SMILES | IC50 (RBL-2H3 cells; [2]) | IC50 (Syk kinase) | IC50 (RBL-2H3 cells; RBL-2H3, read-out: IC50, IgE-induced Beta-hexosaminidase secretion) |
| --- | --- | --- | --- | --- |
| 1 to 100 nM | O=C(C1CCC1)N1CCN(c2ccc(-c3cc4nccnc4c(NC[C@@H]4CNCCO4)n3)cc2)CC1 [Compound 413] | 1 to 100 nM |  |  |
| 1 to 100 nM | O=C(C1CCCC1)N1CCN(c2ccc(-c3cc4nccnc4c(NC[C@@H]4CNCCO4)n3)cc2)CC1 [Compound 414] | 1 to 100 nM |  |  |
| 1 to 100 nM | O=C([C@@H]1CCCO1)N1CCN(c2ccc(-c3cc4nccnc4c(NC[C@@H]4CNCCO4)n3)cc2)CC1 [Compound 415] | 1 to 100 nM |  |  |
| 1 to 100 nM | O=C([C@H]1CCCO1)N1CCN(c2ccc(-c3cc4nccnc4c(NC[C@@H]4CNCCO4)n3)cc2)CC1 [Compound 416] | 1 to 100 nM |  |  |
| 1 to 100 nM | O=C([C@@H]1CCOC1)N1CCN(c2ccc(-c3cc4nccnc4c(NC[C@@H]4CNCCO4)n3)cc2)CC1 [Compound 417] | 100 to 1000 nM |  |  |
| 1 to 100 nM | CC(=O)N1CCC(c2ccc(-c3cc4nccnc4c(NC[C@@H]4CNCCO4)n3)cc2)CC1 [Compound 418] | 1 to 100 nM |  |  |
| 1 to 100 nM | CC(=O)N(C)C1CCN(c2ccc(-c3cc4nccnc4c(NC[C@@H]4CNCCO4)n3)cc2)CC1 [Compound 420] | 100 to 1000 nM |  |  |
| 1 to 100 nM | O=C(c1ccoc1)N1CCN(c2ccc(-c3cc4nccnc4c(NCC4CNCCO4)n3)cc2)CC1 (centres unmarked) [Compound 421] | 1 to 100 nM |  |  |
| 1 to 100 nM | N#CC1(C(=O)N2CCN(c3ccc(-c4cc5nccnc5c(NCC5CNCCO5)n4)cc3)CC2)CC1 (centres unmarked) [Compound 423] | 1 to 100 nM |  |  |
|  | O=C(CF)N1CCN(c2ccc(-c3cc4nccnc4c(NCC4CNCCO4)n3)cc2)CC1 (centres unmarked) [Compound 424] |  | 1 to 100 nM | 1 to 100 nM |
| 1 to 100 nM | O=C(c1ccco1)N1CCN(c2ccc(-c3cc4nccnc4c(NCC4CNCCO4)n3)cc2)CC1 (centres unmarked) [Compound 425] | 1 to 100 nM |  |  |
| 1 to 100 nM | CCCC(=O)N1CCN(c2ccc(-c3cc4nccnc4c(NC[C@@H]4CNCCO4)n3)cc2)CC1 [Compound 426] | 1 to 100 nM |  |  |
| 1 to 100 nM | O=C(C(F)F)N1CCN(c2ccc(-c3cc4nccnc4c(NC[C@@H]4CNCCO4)n3)cc2F)CC1 [Compound 427] | 1 to 100 nM |  |  |
| 1 to 100 nM | O=C(CC(F)(F)F)N1CCN(c2ccc(-c3cc4nccnc4c(NC[C@@H]4CNCCO4)n3)cc2F)CC1 [Compound 428] | 1 to 100 nM |  |  |
| 1 to 100 nM | CCC(=O)N1CCN(c2ccc(-c3cc4nccnc4c(NC[C@@H]4CNCCO4)n3)cc2F)CC1 [Compound 429] | 1 to 100 nM |  |  |
| 1 to 100 nM | O=C(C1CC(F)(F)C1)N1CCN(c2ccc(-c3cc4nccnc4c(NC[C@@H]4CNCCO4)n3)cc2)CC1 [Compound 432] | 1 to 100 nM |  |  |
| 1 to 100 nM | CC(F)C(=O)N1CCN(c2ccc(-c3cc4nccnc4c(NC[C@@H]4CNCCO4)n3)cc2)CC1 (some centres unmarked) [Compound 433] | 1 to 100 nM |  |  |
| 1 to 100 nM | N#CCCC(=O)N1CCN(c2ccc(-c3cc4nccnc4c(NC[C@@H]4CNCCO4)n3)cc2)CC1 [Compound 434] | 100 to 1000 nM |  |  |
